Common to all, as to assay type: cell-based
Assay [1] relates to A549 (human lung cancer cells). How it is done:
(§1) MCF-7, HT-29, A549 and HepG2 cells are got from American Tissue Culture Collection, which are cultured with the culture medium containing 10% bovine fetal serum in a CO2-containing incubator at 37° C. MTT method is used to detect cell proliferation and growth inhibition. The number of experimental cells is adjusted to obtain the absorbance at 570 nm. 6 concentrations are set for the compound test solution (0.1 nmol/L˜10 μmol/L). The cells are treated for 72 hours. At least 3 parallel experiments and 3 repeated experiments are conducted for each concentration. The IC50 value is determined by statistical analysis.
(§2) Taking cisplatin as the contrast, the in vitro growth inhibitory activity of Compound 1 and Compound 2 on tumor cells are tested, including MCF7 (human breast cancer cells), HT-29 (human colon cancer cells), A549 (human lung cancer cells) and HepG2 (liver cancer cells).

For assay [2], the system named is HT-29 (human colon cancer cells). The method, then:
as §1, §2

The subject of assay [3] is HepG2 (liver cancer cells). How it is done: as §1, §2
Assay [4] concerns MCF7 (human breast cancer cells). How it is done: as §1, §2
[5] abbreviates: A549 cells, MTT, 72 hours treatment.
The mark [6] stands for this setting: HT-29 cells, MTT, 72 hours treatment.
The mark [7] stands for this setting: HepG2 cells, MTT, 72 hours treatment.
Setting [8] is: MCF7 cells, MTT, 72 hours treatment.

This is an account of results in patent publication US11787826B2, “Hydrocarbyl tin complex of alkynyl phosphonic acid with antitumor activity and application thereof” (priority 2020, dated 2023).

Read-outs that look alike come from different tables or passages of the source.

With “Tri-n-butyltin (IV) (3,5-dimethylphenyl) Acetylenyl Phosphonic Acid Derivatives [Compound 1]”, the IC50 came out at 33 nM in assay [1] (setting [5]), 635 nM in assay [2] (setting [6]), 211 nM in assay [3] (setting [7]) and 194 nM in assay [4] (setting [8]).
For “tri-n-butyltin (IV) (3-Trifluoromethyl Phenyl) acetylenyl phosphonic acid derivatives [Compound 2]”, the IC50 was 274 nM in assay [1], 962 nM in assay [2], 872 nM in assay [3] and 1730 nM in assay [4].
As for `N.N.[Cl][Pt][Cl]` [Cisplatin, cisplatin, reference compound], the IC50 amounted to 1300 nM in assay [1] (setting [5]), 35000 nM in assay [2] (setting [6]), 17000 nM in assay [3] (setting [7]) and 43000 nM in assay [4] (setting [8]).
